Results as given in patent publication US20250222011A1, “DRUG TARGET FOR INHIBITING TUMOR, USE, AND ORAL DRUG” (CHI BIOTECH CO., LTD., priority 2024, published 2025).

How the values were obtained:
phosphorylated EIF2S1 = experiment: Western blotting detection of EIF2A phosphorylation; type: cell-based; details: 1 mM of ATCA for 48 h, FIG. 3
Description: Western Blotting method: the sample and molecular weight standard of pre-stained protein were loaded onto an SDS-PAGE gel (10 cm×10 cm) to allow electrophoresis at 100 V for 40 min. After treating for 1 h at 100 V, 230 mA, the protein in SDS-PAGE was transferred to a nitrocellulose membrane. After transfer, the nitrocellulose membrane was washed with 25 mL of TBS for 5 min at room temperature. The nitrocellulose membrane was placed in 25 mL of blocking buffer (TBST, 5% skim milk) and incubated at room temperature for 1 h. The membrane was washed three times with 15 mL TBST, 5 min each time. The membrane and phosphorylated EIF2S1 primary antibody (diluted at 1:1500) were placed in 10 mL of a primary antibody dilution buffer and incubated overnight at 4° C. with gentle shaking at certain intervals. The membrane was washed three times with 15 mL TBST, 5 min each time. A rabbit secondary antibody was prepared with 5% skim milk at a ratio of 1:2000 and incubated at room temperature for 1.5 h. The membrane was washed three times with 15 mL TBST, 5 min each time. The membrane was incubated with 10 mL of LumiGLO® (0.5 mL 20× LumiGLO®, 0.5 mL 20× peroxide, and 9.0 mL purified water) at room temperature for 1 min with gentle agitation at certain intervals. The excess developer on the membrane was drained (no drying), wrapped in plastic film, and then developed with a BIO-RAD developer.

polyribosomes = experiment: Polysome profiling (cell translation initiation efficiency); type: cell-based; details: 1 mg/mL, FIG. 5
Description: Polysome profiling: cells were plated in a 75 T flask with 2 million cells per flask and allowed to adhere for 24 h, and the ACTA was added to the experimental group to make a concentration of the working solution at 1 mg/mL. The control group was replaced with a new medium. Samples were collected after 24 h and 48 h of ATCA treatment. The medium was aspirated, the samples were washed twice with PBS, and 2 mL of Lysis Buffer (RB Buffer, 1% Ttiton X-100, and 10 μg/μL cycloheximide) was added to allow lysis for 30 min on ice, and a resulting lysate was pipetted into an RNase-free EP tube. […] After centrifugation for 4 h and 10 min at 4° C. and 25,400 rpm, high-performance liquid chromatography (HPLC) was conducted to allow relative quantitative analysis of polyribosomes, monoribosomes, and large and small subunits of ribosomes.

[1] = system: lung adenocarcinoma cells A549; experiment: Apoptosis by Annexin V and propidium iodide staining, flow cytometry; type: cell-based; details: 0.5 mg/mL ATCA, P<0.05, n=4
From the text: (§1) In the experiment of ATCA inducing apoptosis in lung cancer cells, Annexin V and propidium iodide were used to stain the cancer cells and then detected by flow cytometry.

[2] = system: lung adenocarcinoma cells H1299; experiment: as above; type: cell-based; details: 0.5 mg/mL ATCA, P<0.05, n=4
From the text: as §1

H1299 cells = experiment: Transcriptome sequencing with KEGG pathway enrichment of down-regulated genes; type: cell-based, human; details: 1 mg/mL ATCA, 48 h, FIG. 7
Description: 1 mg/mL ATCA was added to the culture medium of a T75 cell culture flask filled with three million of H1299 cells as a treatment group, and an equal volume of PBS was added as a control group. After ATCA treatment for 48 h, the cultured supernatant was discarded, and the cells were placed on ice, washed twice with pre-cooled PBS. The PBS was discarded, 5 mL of pre-cooled Trizol (total RNA extraction reagent) was added, mixed by shaking thoroughly. […]

HER2 = experiment: Western blotting of HER2 expression after ATCA treatment; type: cell-based; details: FIG. 4
normal lung cells HBE = experiment: Apoptosis by Annexin V and propidium iodide staining, flow cytometry; type: cell-based; details: 0.5 mg/mL ATCA
cancer cells = experiment: LDH assay of cytotoxicity; type: cell-based; details: 0.5 mg/mL
From the text: (§2) In addition, an LDH assay was adopted to determine the cytotoxicity of ATCA and detect the cytotoxicity of the drug.

normal cells (HBE) = experiment: LDH assay of cytotoxicity; type: cell-based; details: 0.5 mg/mL
From the text: as §2

In the case of `O=C(O)C1=CC(=C(c2ccc(O)c(C(=O)O)c2)c2ccc(O)c(C(=O)O)c2)C=CC1=O` [ATCA, aurintricarboxylic acid], the EIF2S1 phosphorylation abundance (phosphorylated EIF2S1) is reported as “did not affect its phosphorylation abundance”, the polysome distribution curve (polyribosomes; 24 h after adding the drug) is reported as “did not change much” and the polyribosome fraction (polyribosomes; 48 h after adding the drug) is reported as “significantly reduced”. For the same compound, the translation elongation (polyribosomes) was “did not affect translation elongation”, the “apoptosis of A549 cells” value [1] was “significant apoptosis” and the “apoptosis of H1299 cells” value [2] was “significant apoptosis”. For the same compound, the “further significantly down-regulated pathways (KEGG enrichment)” value (H1299 cells) was “platinum drug-resistance, TGF-beta signaling pathway, signaling pathways regulating pluripotency of stem cells, and FoxO signaling pathway”, the “most significantly down-regulated pathway (KEGG enrichment)” value (H1299 cells) was “cell cycle” and the HER2 expression (HER2) was “downregulation”. For the same compound, the “apoptosis of normal lung cells HBE” value (normal lung cells HBE) was “did not show apoptosis”, the “cytotoxicity to cancer cells (LDH)” value (cancer cells) was “did not cause obvious cytotoxicity” and the “cytotoxicity to normal cells (LDH)” value (normal cells (HBE)) was “did not cause obvious cytotoxicity”.
